# Reference: ChEMBL document CHEMBL1240428, “Conventional and microwave assisted synthesis of some new N-[(4-oxo-2-substituted aryl -1, 3-thiazolidine)-acetamidyl]-5-nitroindazoles and its antimicrobial activity” (2010)
# Tests used:
# Escherichia coli [1] = test: Antibacterial activity against Escherichia coli at 50 ug/mL; assay type: functional; conditions: read-out: IZ
# Escherichia coli [2] = test: Antibacterial activity against Escherichia coli at 100 ug/mL; assay type: functional; conditions: read-out: IZ
# Bacillus subtilis [3] = test: Antibacterial activity against Bacillus subtilis at 50 ug/mL; assay type: functional; conditions: read-out: IZ
# Bacillus subtilis [4] = test: Antibacterial activity against Bacillus subtilis at 100 ug/mL; assay type: functional; conditions: read-out: IZ
# Aspergillus flavus [5] = test: Antifungal activity against Aspergillus flavus at 50 ug/mL; assay type: functional; conditions: read-out: IZ
# Aspergillus flavus [6] = test: Antifungal activity against Aspergillus flavus at 100 ug/mL; assay type: functional; conditions: read-out: IZ
# Penicillium citrinum [7] = test: Antifungal activity against Penicillium citrinum at 50 ug/mL; assay type: functional; conditions: read-out: IZ
# Penicillium citrinum [8] = test: Antifungal activity against Penicillium citrinum at 100 ug/mL; assay type: functional; conditions: read-out: IZ
# Fusarium oxysporum [9] = test: Antifungal activity against Fusarium oxysporum at 50 ug/mL; assay type: functional; conditions: read-out: IZ
# Fusarium oxysporum [10] = test: Antifungal activity against Fusarium oxysporum at 100 ug/mL; assay type: functional; conditions: read-out: IZ
# Escherichia coli [11] = test: Antibacterial activity against Escherichia coli; assay type: functional
# Bacillus subtilis [12] = test: Antibacterial activity against Bacillus subtilis; assay type: functional
# Aspergillus flavus [13] = test: Antifungal activity against Aspergillus flavus; assay type: functional
# Penicillium citrinum [14] = test: Antifungal activity against Penicillium citrinum; assay type: functional
# Fusarium oxysporum [15] = test: Antifungal activity against Fusarium oxysporum; assay type: functional
# Salmonella typhi [16] = test: Antibacterial activity against Salmonella typhi
# Salmonella typhi [17] = test: Antibacterial activity against Salmonella typhi at 50 ug/mL; conditions: read-out: IZ
# Salmonella typhi [18] = test: Antibacterial activity against Salmonella typhi at 100 ug/mL; conditions: read-out: IZ
SMILES,zone of inhibition at 50 µg/mL (Escherichia coli [1]) [mm],zone of inhibition at 100 µg/mL (Escherichia coli [2]) [mm],zone of inhibition at 50 µg/mL (Bacillus subtilis [3]) [mm],zone of inhibition at 100 µg/mL (Bacillus subtilis [4]) [mm],zone of inhibition at 50 µg/mL (Aspergillus flavus [5]) [mm],zone of inhibition at 100 µg/mL (Aspergillus flavus [6]) [mm],zone of inhibition at 50 µg/mL (Penicillium citrinum [7]) [mm],zone of inhibition at 100 µg/mL (Penicillium citrinum [8]) [mm],zone of inhibition at 50 µg/mL (Fusarium oxysporum [9]) [mm],zone of inhibition at 100 µg/mL (Fusarium oxysporum [10]) [mm],MIC (Escherichia coli [11]) [µg/mL],MIC (Bacillus subtilis [12]) [µg/mL],MIC (Aspergillus flavus [13]) [µg/mL],MIC (Penicillium citrinum [14]) [µg/mL],MIC (Fusarium oxysporum [15]) [µg/mL],MIC (Salmonella typhi [16]) [µg/mL],zone of inhibition at 50 µg/mL (Salmonella typhi [17]) [mm],zone of inhibition at 100 µg/mL (Salmonella typhi [18]) [mm]
CN(C)c1ccc(/C=N/NC(=O)Cn2ncc3cc([N+](=O)[O-])ccc32)cc1,10.6,12.5,7.5,11,9.5,12.4,8.2,11.5,11.4,13.8,30,41,27,36,23,32,8.6,12
NNC(=O)Cn1ncc2cc([N+](=O)[O-])ccc21,7,10,5,7,7,10,6,8.9,8.3,10.5,32,43,32,38,28,36,6,8
O=C(Cn1ncc2cc([N+](=O)[O-])ccc21)N/N=C/c1ccccc1Br,16.8,19.4,14,17.4,16.4,19.4,13.3,18,17.8,19.8,18,22,19,28,15,18,15,19
COc1ccc(C2SCC(=O)N2NC(=O)Cn2ncc3cc([N+](=O)[O-])ccc32)cc1 (stereo not given),16,18,12.4,16,14.8,17.7,13.6,17,16,18.9,20,25,19,28,15,20,13.8,17
COc1ccc(/C=N/NC(=O)Cn2ncc3cc([N+](=O)[O-])ccc32)cc1,12.6,15,10,13.9,12.2,15.1,10,14,13.9,16.2,25,38,22,32,18,25,11,14.8
O=C(Cn1ncc2cc([N+](=O)[O-])ccc21)N/N=C/c1ccccc1Cl,18.2,21,16,19.4,19,22,15.8,20.5,20.1,22,16,20,17,22,13,17,16.9,21
O=C(Cn1ncc2cc([N+](=O)[O-])ccc21)NN1C(=O)CSC1c1ccc(Cl)cc1 (stereo not given),22.3,25.6,18.8,23.7,22.3,25,20.2,24.4,22.9,25.8,13,16,13,17,11,15,20,23.9
O=C(Cn1ncc2cc([N+](=O)[O-])ccc21)NN1C(=O)CSC1c1ccccc1 (stereo not given),17.2,19.1,13.5,17.4,16,19,14.8,18.4,17.1,20,18,23,19,25,15,18,14.6,18.4
COc1ccccc1C1SCC(=O)N1NC(=O)Cn1ncc2cc([N+](=O)[O-])ccc21 (stereo not given),14.8,17.2,11.5,15,13.9,16.8,12.5,16,15,18,20,30,20,28,17,22,13,16.1
O=C(Cn1ncc2cc([N+](=O)[O-])ccc21)N/N=C/c1ccccc1[N+](=O)[O-],20,22.8,18,21,21.4,24,18,22.7,22,24.2,15,17,14,20,11,15,19,22.8
